In brackets after ≈: the same amount, converted by molar mass.
Tests used:
[1] = Cytotoxicity evaluation on HepG2 cell line (MTT); assay type: cell-based; details: human, HepG2 cells
Protocol: The tested molecules’ cytotoxicity was assessed according to the method of Mosmann with slight modifications. […] Triplicate assays were performed for each sample. Each plate-well was then microscope-examined to detect possible precipitate formation before the medium was aspirated from the wells. 100 µL of MTT (3-(4,5-dimethyl-2-thiazolyl)-2,5-diphenyl-2H-tetrazolium bromide) solution (0.5 mg/mL in medium without FCS) were then added to each well. […] Plates were shaken vigorously (700 rpm) for 10 min. The absorbance was measured at 570 nm with 630 nm as reference wavelength using a BIO-TEK ELx808 Absorbance Microplate Reader. DMSO was used as blank and doxorubicin (purchased from Sigma Aldrich) as positive control. Cell viability was calculated as percentage of control (cells incubated without compound). […] (Palo Alto, CA, USA)). CC50 values represent the mean value calculated from three separate experiments.

[2] = Cytotoxicity on THP-1 cell line (MTT); assay type: cell-based; details: human, THP-1 cells, THP1 cell line
Protocol: The plates were incubated for 72 h at 37 °C. Each well plate was then microscope-examined for detecting possible precipitate formation before the medium was aspirated from the wells. 100 µL of MTT solution (0.5 mg/mL in medium) were then added to each well. Cells were incubated for 2 h at 37 °C. […] Plates were shaken vigorously (300 rpm) for 10 min. The absorbance was measured at 570 nm using a BIO-TEK ELx808 Absorbance Microplate Reader. DMSO was used as blank and doxorubicin (purchased from Sigma Aldrich) as positive control. Cell viability was calculated as percentage of control (cells incubated with DMSO). […] (Palo Alto, CA, USA). CC50 values represent the mean value calculated from three separate experiments.

[3] = Redox potential of the nitro group by cyclic voltammetry; assay type: physicochemical; details: cyclic voltammetry in DMSO, corrected versus NHE
Protocol: Voltammetric measurements were carried out with a potentiostat Autolab PGSTAT100 (ECO Chemie, Utrecht, The Netherlands) controlled by GPES 4.09 software (ECO Chemie, Utrecht, The Netherlands). Experiments were performed at room temperature in a homemade airtight three–electrode cell connected to a vacuum/argon line. The reference electrode consisted of a saturated calomel electrode (SCE) separated from the solution by a bridge compartment. The counter electrode was a platinum wire of 1 cm^2 apparent surface. The working electrode was a GC microdisk (1.0 mm in diameter–Bio-logic SAS). The supporting electrolyte (nBu4N)[PF6] (Fluka, 99% puriss electrochemical grade) and the solvent DMSO (Sigma-Aldrich puriss p.a. dried <0.02% water) were used as received and simply degassed under argon. The solutions used during electrochemical analyses were typically 10^−3 M in compound and 0.1 M in supporting electrolyte. Before each measurement, the solutions were degassed by bubbling Ar, and the working electrode was polished with a polishing machine (Presi P230, Eybens, France). Under the experimental conditions adopted in this work, the half-wave potential (E1/2) of the ferrocene Fc+/Fc couple in DMSO was E1/2 = 0.45 V vs. SCE. Experimental peak potentials were measured versus SCE and converted to NHE by adding 0.241 V.

[4] = Thermodynamic solubility at pH 7.4 (miniaturized shake-flask); assay type: physicochemical; details: phosphate buffer (PBS), aqueous buffer, kinetic from dmso stock, pH 7.4, PBS, 23 °C
Protocol: Thermodynamic solubility at pH 7.4 of compounds was determined according to a miniaturized shake-flask method (Organisation for Economic Cooperation and Development guideline n°105). Phosphate Buffer solutions (pH 7.4, […], ionic strength […]) were prepared from Na2HPO4, KH2PO4 and KCl (Sigma Aldrich, Saint Quentin Fallavier, France); 10 µL of 20 mM stock solution were added to 5 mL glass tubes containing […] buffer (n = 3). The tubes were briefly sonicated and shacked by inversion during 24 h at 23 °C. Then, the tube contents were placed in a microtube which was centrifuged at 12,225× g for 10 min; 100 µL supernatant were mixed with 100 µL acetonitrile in a Greiner UV microplate. Standard solutions were prepared extemporaneously, diluting 20 mM DMSO stock solutions at […]; 5 µL of each working solution were diluted with 995 µL buffer and 100 µL were then mixed in microplates with 100 µL acetonitrile so as to ensure that the final proportions of each solvent in standard solutions and samples remained unchanged. Solubility at pH 7.4 was determined with an Infinite M200Pro (Tecan, Lyon, France) microplate reader in spectrophotometric mode (230 to 450 nm) from the specific λmax of each compound. The calibration curve was obtained from the […] standard solutions of tested compounds at 0, 25, 50, and 100 µM in a 50:50 (vol/vol) mixture of buffer with acetonitrinile/DMSO (99:1; vol/vol). Calibration curves were linear with R^2 > 0.99.

[5] = Mouse microsomal stability; assay type: in vitro ADME; details: female, CD-1, pH 7.4; mouse liver microsomes; read-out: Mouse Microsomal Stability T1/2
Protocol: The tested product and propranolol, used as reference, were incubated in duplicate (reaction volume of 0.5 mL) with female mouse microsomes (CD-1, 20 mg/mL, BD Gentest™) at 37 °C in a 50 mM phosphate buffer, pH 7.4, in the presence of MgCl2 (5 mM), NADP (1 mM), glucose-6-phosphate dehydrogenase (0.4 U/mL) and glucose-6-phosphate (5 mM). […] After centrifugation at 10,000× g, 10 min, 4 °C, the supernatants were maintained at 4 °C for immediate analysis or placed at -80 °C for later analysis. Controls (t0 and tfinal) in triplicate were prepared by incubation of the internal standard with microsomes denatured by acetonitrile. […] The mobile phases were (A) ammonium acetate 10 mM and (B) acetonitrile with 0.1% formic acid. The injection volume was 1 µL and the flow rate 600 µL/min. […] Each compound was quantified by converting the average of the ratios of the analyte/internal standard surfaces to the percentage of product consumed. The ratio of the control at t0 corresponded to 0% of product consumed. The half-life (T1/2) of each compound in the presence of microsomes was calculated according to the equation: t1/2=ln(2)/k , where k is the first-order degradation constant (the slope of the logarithm of compound concentration versus incubation time). The intrinsic clearance in vitro (Clint expressed in μL/min/mg) is calculated according to the equation: Clint=dose/AUC∞/[microsomes] where “dose” is the initial concentration of product in the sample, AUC∞ is the area under the concentration-time curve extrapolated to infinity and [microsomes] is the microsome concentration expressed in mg/µL.

[6] = Parallel artificial membrane permeability assay (PAMPA); assay type: in vitro ADME; details: for Papp at 4 h, 100 µM: PAMPA, pH 7.4, read-out: PAMPA GIT at pH 7.4 Pe

O=[N+]([O-])c1c(CS(=O)(=O)c2ccc(OC(F)(F)F)cc2)nc2c(Br)cc(Cl)cn12 [Compound 2f, 8-Bromo-6-Chloro-3-Nitro-2-[(4-Trifluoromethoxyphenylsulfonyl)methyl]imidazo[1,2-a] pyridine]
CC50 at 72 h [1]: > 25 µM | CC50 at 72 h [2]: > 100 µM | E0 (redox potential of the nitro group) [3]: −0.62 V | solubility thermodynamic at 24 h [4]: 8.6 ± 2.3 µM (≈ 4.43 µg/mL)

COc1ccc(S(=O)(=O)Cc2nc3c(Br)cc(Cl)cn3c2[N+](=O)[O-])cc1 [Compound 2g, 8-Bromo-6-Chloro-2-[(4-Methoxyphenylsulfonyl)methyl]-3-Nitroimidazo[1,2-a]pyridine]
CC50 at 72 h [1]: 3.9 ± 1.3 µM | CC50 at 72 h [2]: > 100 µM | E0 (redox potential of the nitro group) [3]: −0.64 V | solubility thermodynamic at 24 h [4]: 5.7 ± 1.3 µM (≈ 2.63 µg/mL)

O=[N+]([O-])c1c(CS(=O)(=O)c2ccc(O)cc2)nc2c(Sc3ccc(Cl)cc3)cc(Cl)cn12 [Compound 3a, 4-{[(6-Chloro-8-[(4-Chlorophenyl)thio]-3-Nitroimidazo[1,2-a]pyridin-2-yl)methyl]sulfonyl}phenol]
CC50 at 72 h [1]: 22.3 ± 2.5 µM | CC50 at 72 h [2]: 28.2 ± 0.1 µM

O=[N+]([O-])c1c(CS(=O)(=O)c2ccc(Cl)cc2)nc2c(Sc3ccc(Cl)cc3)cc(Cl)cn12 [Compound 3b, 6-Chloro-2-[(4-Chlorophenylsulfonyl)methyl]-8-[(4-Chlorophenyl)thio]-3-Nitroimidazo[1,2-a]pyridine]
CC50 at 72 h [1]: 8.9 ± 1.3 µM | CC50 at 72 h [2]: > 15.6 µM | E0 (redox potential of the nitro group) [3]: −0.68 V | solubility thermodynamic at 24 h [4]: < 2 µM | half-life [5]: 4.5 min

O=[N+]([O-])c1c(CS(=O)(=O)c2ccc(F)cc2)nc2c(Sc3ccc(Cl)cc3)cc(Cl)cn12 [Compound 3c, 6-Chloro-8-[(4-Chlorophenyl)thio]-2-[(4-Fluorophenylsulfonyl)methyl]-3-Nitroimidazo[1,2-a]pyridine]
CC50 at 72 h [1]: > 15.6 µM | CC50 at 72 h [2]: > 100 µM | E0 (redox potential of the nitro group) [3]: −0.61 V | solubility thermodynamic at 24 h [4]: < 2 µM | half-life [5]: 5.7 min

O=[N+]([O-])c1c(CS(=O)(=O)c2ccc(C(F)(F)F)cc2)nc2c(Sc3ccc(Cl)cc3)cc(Cl)cn12 [Compound 3d, 6-Chloro-8-[(4-Chlorophenyl)thio]-3-Nitro-2-[(4-Trifluoromethylphenylsulfonyl)methyl]imidazo[1,2-a]pyridine]
CC50 at 72 h [1]: > 3.9 µM | CC50 at 72 h [2]: > 50 µM | E0 (redox potential of the nitro group) [3]: −0.56 V | solubility thermodynamic at 24 h [4]: 2.5 ± 0.7 µM (≈ 1.41 µg/mL)

O=[N+]([O-])c1c(CS(=O)(=O)c2ccc(OC(F)(F)F)cc2)nc2c(Sc3ccc(Cl)cc3)cc(Cl)cn12 [Compound 3e, 6-Chloro-8-[(4-Chlorophenyl)thio]-3-Nitro-2-[(4-Trifluoromethoxyphenylsulfonyl)methyl]imidazo[1,2-a]pyridine]
CC50 at 72 h [1]: > 12.5 µM | CC50 at 72 h [2]: > 100 µM | E0 (redox potential of the nitro group) [3]: −0.66 V | solubility thermodynamic at 24 h [4]: 64.7 ± 7.3 µM (≈ 37.4 µg/mL)

COc1ccc(S(=O)(=O)Cc2nc3c(Sc4ccc(Cl)cc4)cc(Cl)cn3c2[N+](=O)[O-])cc1 [Compound 3f, 6-Chloro-8-[(4-Chlorophenyl)thio]-2-[(4-Methoxyphenylsulfonyl)methyl]-3-Nitroimidazo[1,2-a]pyridine]
CC50 at 72 h [1]: > 3.9 µM | CC50 at 72 h [2]: > 50 µM | E0 (redox potential of the nitro group) [3]: −0.66 V | solubility thermodynamic at 24 h [4]: < 2 µM

O=[N+]([O-])c1c(CS(=O)(=O)C2CC2)nc2c(Sc3ccc(Cl)cc3)cc(Cl)cn12 [Compound 3h, 6-Chloro-8-[(4-Chlorophenyl)thio]-2-[(cyclopropylsulfonyl)methyl]-3-Nitroimidazo[1,2-a]pyridine]
CC50 at 72 h [1]: 22.3 ± 2.5 µM | CC50 at 72 h [2]: > 62.5 µM | E0 (redox potential of the nitro group) [3]: −0.65 V | solubility thermodynamic at 24 h [4]: 3 ± 0.4 µM (≈ 1.38 µg/mL)

O=[N+]([O-])c1c(CS(=O)(=O)CCC(F)(F)F)nc2c(Sc3ccc(Cl)cc3)cc(Cl)cn12 [Compound 3i, 6-Chloro-8-[(4-Chlorophenyl)thio]-3-Nitro-2-[(3,3,3-Trifluoropropylsulfonyl)methyl]imidazo[1,2-a]pyridine]
CC50 at 72 h [1]: > 6.2 µM | CC50 at 72 h [2]: > 50 µM | E0 (redox potential of the nitro group) [3]: −0.64 V | solubility thermodynamic at 24 h [4]: 12.4 ± 3 µM (≈ 6.38 µg/mL) | half-life [5]: 9.1 min | PAMPA GIT at pH 7.4 Pe [6]: 6.3 nm/s | Papp at 4 h, 100 µM [6]: 0.63 ± 0.08 ×10⁻⁶ cm/s

O=[N+]([O-])c1c(CS(=O)(=O)CCC(F)(F)F)nc2c(S(=O)(=O)c3ccc(Cl)cc3)cc(Cl)cn12 [Compound 6b, 6-Chloro-8-[(4-Chlorophenyl)sulfonyl]-3-Nitro-2-[(3,3,3-Trifluoropropylsulfonyl)methyl] imidazo[1,2-a]pyridine]
CC50 at 72 h [1]: > 10 µM | CC50 at 72 h [2]: > 100 µM | half-life [5]: 7.9 min

O=[N+]([O-])c1c(CS(=O)(=O)CCC(F)(F)F)nc2c(-c3ccncc3)cc(Cl)cn12 [Compound 7, 6-Chloro-3-Nitro-8-(Pyridin-4-yl)-2-[(3,3,3-Trifluoropropylsulfonyl)methyl]imidazo[1,2-a]pyridine]
CC50 at 72 h [1]: > 100 µM | CC50 at 72 h [2]: > 100 µM | E0 (redox potential of the nitro group) [3]: −0.61 V | solubility thermodynamic at 24 h [4]: 31.1 ± 3.7 µM (≈ 14 µg/mL) | half-life [5]: > 40 min | Papp at 4 h, 100 µM [6]: 31.4 ± 8.72 ×10⁻⁶ cm/s

CSc1ccc(OCc2ncc([N+](=O)[O-])n2C)cc1 [Fexinidazole, reference compound]
CC50 at 72 h [1]: > 100 µM | CC50 at 72 h [2]: > 100 µM | E0 (redox potential of the nitro group) [3]: −0.83 V

O=[N+]([O-])c1c(CS(=O)(=O)c2ccccc2)nc2c(Br)cc(Cl)cn12 [Hit A, 8-Bromo-6-chloro-3-nitro-2-(phenylsulfonylmethyl)imidazo[1,2-a]pyridine, reference compound]
CC50 at 72 h [1]: > 15.6 µM | CC50 at 72 h [2]: > 100 µM | E0 (redox potential of the nitro group) [3]: −0.65 V | solubility thermodynamic at 24 h [4]: 6.9 ± 1.5 µM (≈ 2.97 µg/mL) | half-life [5]: 11 min | PAMPA GIT at pH 7.4 Pe [6]: 173.2 nm/s | Papp at 4 h, 100 µM [6]: 17.3 ± 3.88 ×10⁻⁶ cm/s
